In ChEMBL document CHEMBL1201862, “PubChem BioAssay data set” (2004):
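These data come from cells grown in 96-well plates and exposed to compound for 48 hours at five concentrations. GI50 is the concentration that inhibits growth by half.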 Activity calls are given as the source filed them. Cut-off read from the data, not from the text of the source: active = GI50 up to about 1.1 µM and inactive = higher.

Experiments:
Test in all cases: inhibition of tumour cell growth, NCI panel, 48 h
SK-MEL-2 = system: SK-MEL-2
OVCAR-3 = system: OVCAR-3
HCT-15 = system: HCT-15
U-251 = system: U-251
HOP-92 = system: HOP-92
COLO 205 = system: COLO 205
HCT-116 = system: HCT-116
OVCAR-5 = system: OVCAR-5
K562 = system: K562
MOLT-4 = system: MOLT-4
SR = system: SR
OVCAR-4 = system: OVCAR-4
MDA-MB-435 = system: MDA-MB-435
MDA-N = system: MDA-N
NCI-H23 = system: NCI-H23
DU-145 = system: DU-145
HT-29 = system: HT-29
SN12C = system: SN12C
HL-60 = system: HL-60

Compound	GI50 (SK-MEL-2)	GI50 (OVCAR-3)	GI50 (HCT-15)	GI50 (U-251)	GI50 (HOP-92)	GI50 (COLO 205)	GI50 (HCT-116)	GI50 (OVCAR-5)	GI50 (K562)	GI50 (MOLT-4)	GI50 (SR)	GI50 (OVCAR-4)	GI50 (MDA-MB-435)	GI50 (MDA-N)	GI50 (NCI-H23)	GI50 (DU-145)	GI50 (HT-29)	GI50 (SN12C)	GI50 (HL-60)
COC(=O)Cc1c(-c2[nH]c3ccccc3c2CC(=O)OC)[nH]c2ccccc12	> 57.7 µM (inactive)	1.41 µM (inactive)	> 50.7 µM	51.1 µM (inactive)	> 50.9 µM (inactive)	> 53 µM (inactive)	> 54.2 µM (inactive)	> 54.8 µM (inactive)	27.7 µM (inactive)	> 47.4 µM (inactive)	> 55 µM (inactive)	> 49.9 µM (inactive)	> 54 µM (inactive)	> 53.8 µM (inactive)	> 55.5 µM (inactive)	> 53 µM (inactive)	> 59.3 µM (inactive)	> 59.4 µM (inactive)	–
CCN(CC)C(=S)N/N=C1\C(=O)Nc2ccccc21	2.65 µM (inactive)	0.192 µM (active)	0.413 µM	1.41 µM (inactive)	2.79 µM (inactive)	0.659 µM (active)	0.386 µM (active)	6.18 µM (inactive)	0.562 µM (active)	0.653 µM (active)	0.968 µM (active)	0.771 µM (active)	2.51 µM (inactive)	2.01 µM (inactive)	2.9 µM (inactive)	> 100 µM (inactive)	1.18 µM (inactive)	1.46 µM (inactive)	0.338 µM (active)
CCOC(=O)NC(NC1=NCCS1)(C(=O)OCC)C(F)(F)F (stereo not drawn)	> 100 µM (inactive)	> 100 µM (inactive)	> 100 µM	> 100 µM (inactive)	> 100 µM (inactive)	> 100 µM (inactive)	> 100 µM (inactive)	> 100 µM (inactive)	> 100 µM (inactive)	> 100 µM (inactive)	> 100 µM (inactive)	> 100 µM (inactive)	> 100 µM (inactive)	> 100 µM (inactive)	> 100 µM (inactive)	> 100 µM (inactive)	> 100 µM (inactive)	> 100 µM (inactive)	> 100 µM (inactive)
O=C1NC(Nc2ccccc2Cl)=N/C1=C\c1c(Cl)cccc1Cl	28.8 µM (inactive)	27 µM (inactive)	25.5 µM	8.43 µM (inactive)	19.9 µM (inactive)	27.7 µM (inactive)	22.5 µM (inactive)	30 µM (inactive)	17.1 µM (inactive)	27 µM (inactive)	5.52 µM (inactive)	11.6 µM (inactive)	11 µM (inactive)	16.5 µM (inactive)	37.1 µM (inactive)	37.2 µM (inactive)	31.6 µM (inactive)	28.2 µM (inactive)	18.6 µM (inactive)
NC(=S)NC/C=C/Cl	> 100 µM (inactive)	> 100 µM (inactive)	> 100 µM	–	> 100 µM (inactive)	> 100 µM (inactive)	> 100 µM (inactive)	> 100 µM (inactive)	> 100 µM (inactive)	> 100 µM (inactive)	> 100 µM (inactive)	> 100 µM (inactive)	> 100 µM (inactive)	> 100 µM (inactive)	> 100 µM (inactive)	> 100 µM (inactive)	> 100 µM (inactive)	–	> 100 µM (inactive)
OC1(c2ccccc2)C2CC=CC2C1(c1ccccc1)c1ccccc1 (stereo not drawn)	12 µM (inactive)	30.8 µM (inactive)	28.6 µM	32.5 µM (inactive)	33.3 µM (inactive)	18.4 µM (inactive)	31.2 µM (inactive)	60.8 µM (inactive)	35.6 µM (inactive)	16.1 µM (inactive)	19.2 µM (inactive)	–	20.7 µM (inactive)	25 µM (inactive)	41.9 µM (inactive)	61.7 µM (inactive)	18.4 µM (inactive)	30.1 µM (inactive)	27.8 µM (inactive)
CCOC(=O)N(C)C1(c2ccccc2)CCN(CCCC(=O)c2ccc(F)cc2)CC1	21.5 µM (inactive)	44 µM (inactive)	35.1 µM	61.4 µM (inactive)	34.8 µM (inactive)	15.4 µM (inactive)	32.2 µM (inactive)	49 µM (inactive)	23.7 µM (inactive)	31.8 µM (inactive)	19.8 µM (inactive)	40.2 µM (inactive)	23.9 µM (inactive)	21.7 µM (inactive)	68.7 µM (inactive)	> 100 µM (inactive)	19.7 µM (inactive)	83.4 µM (inactive)	26.5 µM (inactive)
Cc1nn(C(=O)Cc2ccccc2)c2c1C(c1ccc([N+](=O)[O-])cc1)SC(=N)N2 (stereo not drawn)	–	–	> 100 µM	–	–	> 100 µM (inactive)	> 100 µM (inactive)	–	> 100 µM (inactive)	> 100 µM (inactive)	> 100 µM (inactive)	–	> 100 µM (inactive)	> 100 µM (inactive)	> 100 µM (inactive)	> 100 µM (inactive)	> 100 µM (inactive)	> 100 µM (inactive)	> 100 µM (inactive)
COc1ccc(C2CC(C)(O)Oc3cc4c(cc32)OCO4)cc1 (stereo not drawn)	15.8 µM (inactive)	32.3 µM (inactive)	23.8 µM	31.4 µM (inactive)	28.4 µM (inactive)	19.7 µM (inactive)	30.6 µM (inactive)	55.7 µM (inactive)	15.2 µM (inactive)	22.1 µM (inactive)	24.2 µM (inactive)	38.6 µM (inactive)	7.14 µM (inactive)	10.5 µM (inactive)	33.7 µM (inactive)	61.2 µM (inactive)	24.9 µM (inactive)	45.8 µM (inactive)	17.6 µM (inactive)
Nc1ncc2c(n1)-c1ccccc1OC2N1CCCCC1 (stereo not drawn)	> 100 µM (inactive)	> 100 µM (inactive)	> 100 µM	> 100 µM (inactive)	> 100 µM (inactive)	> 100 µM (inactive)	> 100 µM (inactive)	> 100 µM (inactive)	–	> 100 µM (inactive)	> 100 µM (inactive)	> 100 µM (inactive)	> 100 µM (inactive)	> 100 µM (inactive)	> 100 µM (inactive)	> 100 µM (inactive)	> 100 µM (inactive)	> 100 µM (inactive)	> 100 µM (inactive)
Nc1nc(N)c2cc(-c3cc4ccccc4[nH]3)ccc2n1	18.2 µM (inactive)	35.6 µM (inactive)	22.1 µM	30.4 µM (inactive)	12.2 µM (inactive)	10.3 µM (inactive)	31.8 µM (inactive)	18.6 µM (inactive)	–	26.5 µM (inactive)	30.2 µM (inactive)	21.9 µM (inactive)	18.5 µM (inactive)	19.8 µM (inactive)	27.5 µM (inactive)	21.3 µM (inactive)	15.5 µM (inactive)	33 µM (inactive)	19.7 µM (inactive)
COc1c(F)c(F)c(C(=O)/C=C2\Nc3ccccc3NC2=O)c(F)c1F	–	–	> 10 µM	–	> 10 µM (inactive)	> 10 µM (inactive)	–	–	> 10 µM (inactive)	> 10 µM (inactive)	> 10 µM (inactive)	2.48 µM (inactive)	> 10 µM (inactive)	> 10 µM (inactive)	> 10 µM (inactive)	> 10 µM (inactive)	6.98 µM (inactive)	> 10 µM (inactive)	> 10 µM (inactive)
CCOC(=O)c1c2ccccc2n2c(=O)n(-c3ccc(OC)cc3)nnc12	22.8 µM (inactive)	34.4 µM (inactive)	> 58.6 µM	16.9 µM (inactive)	21.7 µM (inactive)	> 100 µM (inactive)	54.8 µM (inactive)	46.1 µM (inactive)	25.9 µM (inactive)	–	38.7 µM (inactive)	22.5 µM (inactive)	> 37.1 µM (inactive)	> 100 µM (inactive)	34.4 µM (inactive)	75.2 µM (inactive)	–	> 83.8 µM (inactive)	21.1 µM (inactive)
COc1cc(S(=O)(=O)Nc2ccc(-c3csc(/N=C\C=C\c4ccccc4)n3)cc2)ccc1Cl	26 µM (inactive)	> 100 µM (inactive)	50 µM	–	22.8 µM (inactive)	36.7 µM (inactive)	46.8 µM (inactive)	> 100 µM (inactive)	31.2 µM (inactive)	38.1 µM (inactive)	32.5 µM (inactive)	28.5 µM (inactive)	> 100 µM (inactive)	> 100 µM (inactive)	30.9 µM (inactive)	45.5 µM (inactive)	> 100 µM (inactive)	> 100 µM (inactive)	43.3 µM (inactive)
N#CC1C(=S)NC(c2ccccc2)=CC12CCCCC2 (stereo not drawn)	24 µM (inactive)	–	19.9 µM	31.1 µM (inactive)	18.6 µM (inactive)	30.1 µM (inactive)	24.5 µM (inactive)	37.5 µM (inactive)	26.5 µM (inactive)	20.7 µM (inactive)	21.1 µM (inactive)	26.4 µM (inactive)	18.2 µM (inactive)	31.5 µM (inactive)	15.7 µM (inactive)	26.6 µM (inactive)	27.6 µM (inactive)	35 µM (inactive)	22.2 µM (inactive)
O=C(/C=C/c1ccc(C(F)(F)F)cc1)c1c([O-])on[n+]1-c1ccccc1	2.81 µM (inactive)	1.58 µM (inactive)	1.31 µM	1.83 µM (inactive)	1.6 µM (inactive)	1.75 µM (inactive)	1.75 µM (inactive)	3.12 µM (inactive)	0.395 µM (active)	0.284 µM (active)	0.196 µM (active)	5.33 µM (inactive)	1.86 µM (inactive)	1.84 µM (inactive)	3.13 µM (inactive)	2.21 µM (inactive)	0.889 µM (active)	2.23 µM (inactive)	0.173 µM (active)
